Type in all cases: cell-based
One test concerns the target T1, EGFR L858R/T790M/C797S (Homo sapiens, UniProt P00533, C797S/L858R/T790M).
T1 construct: expressed in transfected cells; host or cells: BaF3-LTC
In words: EGFR degradation HTRF assay in BaF3-LTC cells. To be noted: for Dmax: read-out: BaF3-LTC Dmax (%). The method, boiled down: (§1)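 BaF3 cells expressing EGFR L858R/C797S or L858R/T790M/C797S treated 16 h at 37 °C with compounds (top 10 uM, 5-fold, 8 doses; 0.2% DMSO). Remaining EGFR quantified by HTRF in lysates after overnight antibody incubation. Degradation percentage versus DMSO controls; DC50 from four-parameter fit, Dmax as maximal degradation.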
On the technique in general: TR-FRET usually uses a lanthanide donor and a delayed reading to cut background.

The subject of a further test is EGFR Del19/C797S. As to the kind of experiment: EGFR degradation HTRF assay in H1975-clone #23 (H1975 #23 DC). Conditions: H1975-clone #23 (Del19/C797S); for DC50: 16 h treatment, HTRF; for H1975 #23 DC Dmax (%): maximum percentage of inhibition (degradation). As to the method: (§2) Cell Line Generation H1975-clone #28(Del19/T790M/C797S) and H1975-clone #23(Del19/C797S). EGFR-Del19/T790M/C797S and EGFR-Del19/C797S were stably expressed in H1975 cell lines by lentivirus-mediated over-expression, respectively. The EGFR over-expressed cells then underwent gene knockout, in which the EGFR targeting sgRNA was designed to only target the endogenous EGFR copies and preserve the exogenous EGFR copies. Followed by the gene knockout, the edited H1975 cells were seeded in 96 well plates at the concentration of 1 cell/well, cultured for about 2 weeks to allow single clones formation. The formed clones were screened by DNA sequencing and whole exon sequencing analysis for the desired edition. H1975-clone #28 and H1975-clone #23 were finally confirmed as homozygous Del19/T790M/C797S EGFR and Del19/C797S EGFR clones, respectively.
(§3) After 16 h treatment, add HTRF lysis buffer to each well; seal the plate and incubate 1 hour at room temperature on a plate shaker; Once the cells are lysed, 16 μL of cell lysate are transferred to a PE 384-well HTRF detection plate; 4 μL of pre-mixed HTRF antibodies are added to each well; Cover the plate with a plate sealer, spin 1000 rpm for 1 min, Incubate overnight at room temperature; Read on BMG PheraStar with HTRF protocol (337 nm-665 nm-620 nm).
(§4) The inhibition (degradation) percentage of the compound was calculated by the following equation: Inhibition percentage of Compound=100−100×(Signal−low control)/(High control−low control), wherein signal=each test compound group
(§5) High control=Cell group with added DMSO and without compound, indicating microplate readings without EGFR degradation;
(§6) Dmax is the maximum percentage of inhibition (degradation).
(§7) The IC50 (DC50) value of a compound can be obtained by fitting the following equation
(§8) Y=Bottom+(TOP−Bottom)/(1+((IC50/X)^hillslope))
Wherein, X and Y are known values, and IC50, Hillslope, Top and Bottom are the parameters obtained by fitting with software. Y is the inhibition percentage (calculated from the equation), X is the concentration of the compound; IC50 is the concentration of the compound when the 50% inhibition is reached. The smaller the IC50 value is, the stronger the inhibitory ability of the compound is. Vice versa, the higher the IC50 value is, the weaker the inhibitory ability of the compound is; Hillslope represents the slope of the fitted curve, generally around 1*; Bottom represents the minimum value of the curve obtained by data fitting, which is generally 0%±20%; Top represents the maximum value of the curve obtained by data fitting, which is generally 100%±20%. The experimental data were fitted by calculating and analyzing with Dotmatics data analysis software.

For the next test, the target named is T2, EGFR L858R/C797S (Homo sapiens, UniProt P00533, C797S/L858R).
T2 construct: expressed in transfected cells; host or cells: BaF3 LC
In words: EGFR degradation HTRF assay in BaF3 LC cells. Conditions: for DC50: 16 h treatment, HTRF. The method, boiled down: as §1

A further test relates to EGFR Del19/T790M/C797S. In words: EGFR degradation HTRF assay in H1975-clone #28 (H1975 #28 DTC). Conditions: H1975-clone #28 (Del19/T790M/C797S), maximum percentage of inhibition (degradation). The procedure: as §2, §3, §4, §5, §6, §7, §8
Wherein, X and Y are known values, and IC50, Hillslope, Top and Bottom are the parameters obtained by fitting with software. […]

Where [1] appears, read: BaF3-LTC (L858R/T790M/C797S), maximum percentage of inhibition (degradation).
[2] abbreviates: BaF3 LC (L858R/C797S), maximum percentage of inhibition (degradation), read-out: BaF3 LC Dmax (%).

Where two headings read alike, the source gives them in different places.

T1 sequence (P00533 25-1210 T790M/C797S/L858R): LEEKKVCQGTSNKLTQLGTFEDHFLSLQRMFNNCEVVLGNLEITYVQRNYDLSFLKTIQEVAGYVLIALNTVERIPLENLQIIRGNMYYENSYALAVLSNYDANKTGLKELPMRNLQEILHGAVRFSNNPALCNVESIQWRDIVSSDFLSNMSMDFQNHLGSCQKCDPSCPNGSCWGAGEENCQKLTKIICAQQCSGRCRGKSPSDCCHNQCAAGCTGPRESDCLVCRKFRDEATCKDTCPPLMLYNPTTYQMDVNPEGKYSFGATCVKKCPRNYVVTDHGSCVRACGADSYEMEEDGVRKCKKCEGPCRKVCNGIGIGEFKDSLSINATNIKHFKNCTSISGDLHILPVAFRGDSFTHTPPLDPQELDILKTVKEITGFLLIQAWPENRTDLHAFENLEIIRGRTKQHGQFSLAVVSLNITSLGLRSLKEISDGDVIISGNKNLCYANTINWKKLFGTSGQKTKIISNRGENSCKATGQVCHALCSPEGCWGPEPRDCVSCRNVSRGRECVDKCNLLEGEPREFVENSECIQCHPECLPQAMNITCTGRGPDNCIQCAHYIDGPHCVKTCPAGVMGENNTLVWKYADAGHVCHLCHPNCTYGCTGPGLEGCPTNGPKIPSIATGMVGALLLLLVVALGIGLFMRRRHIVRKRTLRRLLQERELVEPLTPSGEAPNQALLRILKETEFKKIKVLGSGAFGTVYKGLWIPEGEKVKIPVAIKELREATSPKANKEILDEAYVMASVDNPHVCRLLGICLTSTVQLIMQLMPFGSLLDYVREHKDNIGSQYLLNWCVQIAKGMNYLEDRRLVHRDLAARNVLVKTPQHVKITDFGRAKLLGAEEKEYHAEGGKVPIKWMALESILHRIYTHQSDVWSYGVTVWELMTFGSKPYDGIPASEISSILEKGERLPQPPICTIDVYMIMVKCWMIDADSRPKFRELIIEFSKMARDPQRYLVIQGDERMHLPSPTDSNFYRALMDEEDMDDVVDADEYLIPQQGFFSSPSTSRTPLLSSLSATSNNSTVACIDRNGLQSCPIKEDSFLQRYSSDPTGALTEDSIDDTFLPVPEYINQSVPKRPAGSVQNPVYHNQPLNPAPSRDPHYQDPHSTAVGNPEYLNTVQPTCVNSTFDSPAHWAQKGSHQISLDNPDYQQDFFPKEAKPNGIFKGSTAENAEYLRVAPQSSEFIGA
T2 sequence (P00533 25-1210 C797S/L858R): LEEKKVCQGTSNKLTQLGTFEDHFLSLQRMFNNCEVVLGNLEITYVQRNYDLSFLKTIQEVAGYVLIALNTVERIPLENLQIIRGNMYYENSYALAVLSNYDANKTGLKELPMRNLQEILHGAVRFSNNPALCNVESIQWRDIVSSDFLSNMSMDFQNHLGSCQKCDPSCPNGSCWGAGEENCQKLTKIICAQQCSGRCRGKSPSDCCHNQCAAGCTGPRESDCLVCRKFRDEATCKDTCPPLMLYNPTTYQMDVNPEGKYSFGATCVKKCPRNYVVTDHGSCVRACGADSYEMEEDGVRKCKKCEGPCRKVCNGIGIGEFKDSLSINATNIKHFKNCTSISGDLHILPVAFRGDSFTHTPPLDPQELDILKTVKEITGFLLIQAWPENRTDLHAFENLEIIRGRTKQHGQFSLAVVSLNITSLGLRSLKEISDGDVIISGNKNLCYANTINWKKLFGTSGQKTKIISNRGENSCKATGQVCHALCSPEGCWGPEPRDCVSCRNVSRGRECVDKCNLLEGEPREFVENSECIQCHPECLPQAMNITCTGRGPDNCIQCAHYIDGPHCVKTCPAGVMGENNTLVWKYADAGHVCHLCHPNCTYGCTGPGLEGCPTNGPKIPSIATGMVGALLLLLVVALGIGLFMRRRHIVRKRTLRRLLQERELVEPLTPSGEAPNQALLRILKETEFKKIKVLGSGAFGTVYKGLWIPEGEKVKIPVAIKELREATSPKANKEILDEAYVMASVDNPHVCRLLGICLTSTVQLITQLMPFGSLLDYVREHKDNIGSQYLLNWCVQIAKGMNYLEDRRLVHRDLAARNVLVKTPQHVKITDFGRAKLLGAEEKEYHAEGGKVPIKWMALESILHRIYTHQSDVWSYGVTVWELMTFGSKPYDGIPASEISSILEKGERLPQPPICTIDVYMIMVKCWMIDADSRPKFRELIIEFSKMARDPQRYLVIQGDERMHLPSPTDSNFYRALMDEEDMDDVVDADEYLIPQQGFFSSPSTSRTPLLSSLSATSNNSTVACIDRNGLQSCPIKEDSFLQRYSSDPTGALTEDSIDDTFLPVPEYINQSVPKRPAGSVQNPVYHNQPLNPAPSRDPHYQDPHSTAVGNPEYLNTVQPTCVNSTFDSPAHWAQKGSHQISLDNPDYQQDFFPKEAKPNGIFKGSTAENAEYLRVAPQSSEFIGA

For the molecule `COc1cc(N2CCC3(CCN(CCCCCOc4cccc5c4CN(C4CCC(=O)NC4=O)C5=O)CC3)CC2)c(C)cc1Nc1ncc(Br)c(Nc2ccc3nccnc3c2P(C)(C)=O)n1` (stereo not drawn) [Example 542, 3-(4-((5-(9-(4-((5-bromo-4-((5-(dimethylphosphoryl)quinoxalin-6-yl)amino)pyrimidin-2-yl)amino)-5-methoxy-2-methylphenyl)-3,9-diazaspiro[5.5]undecan-3-yl)pentyl)oxy)-1-oxoisoindolin-2-yl)piperidine-2,6-dione], the Dmax on EGFR L858R/T790M/C797S (setting [1]) was determined as 95.6%; on EGFR L858R/C797S (setting [2]), 90%. The results for the half-maximal degradation concentration (DC50) in the test on EGFR Del19/C797S and at EGFR L858R/C797S (BaF3 LC (L858R/C797S)) were > 10000 nM and 16.2 nM, respectively. Further, in the test on EGFR Del19/C797S, the “H1975 #23 DC Dmax (%)” value was determined as 31.04%.
Take `CCc1ncc2c(P(C)(C)=O)c(Nc3nc(Nc4cc(CC)c(N5CCC(N6CCN(CCc7ccc8c(c7)oc(=O)n8C7CCC(=O)NC7=O)CC6)CC5)cc4OC)ncc3Br)ccc2n1` (stereo not drawn) [Example 499, 3-(6-(2-(4-(1-(4-((5-bromo-4-((5-(dimethylphosphoryl)-2-ethylquinazolin-6-yl)amino)pyrimidin-2-yl)amino)-2-ethyl-5-methoxyphenyl)piperidin-4-yl)piperazin-1-yl)ethyl)-2-oxobenzo[d]oxazol-3(2H)-yl)piperidine-2,6-dione]: the “H1975 # 28 DTC Dmax (%)” value in the test on EGFR Del19/T790M/C797S was found to be 77.41%. Also, the Dmax at EGFR L858R/T790M/C797S stood at 87.8%; at EGFR L858R/C797S (BaF3, read-out: BaF3 LC Dmax (%)), 91%.
Regarding `CCc1cc(Nc2ncc(Br)c(Nc3ccc4nc(C)ccc4c3P(C)(C)=O)n2)c(OC2CC2)cc1N1CCC(N2CCN(CCc3cc(F)c([C@H]4CCC(=O)NC4=O)c(F)c3)CC2)CC1` [Example 459, (R)-3-(4-(2-(4-(1-(4-((5-bromo-4-((5-(dimethylphosphoryl)-2-methylquinolin-6-yl)amino)pyrimidin-2-yl)amino)-5-cyclopropoxy-2-ethylphenyl)piperidin-4-yl)piperazin-1-yl)ethyl)-2,6-difluorophenyl)piperidine-2,6-dione], the DC50 on EGFR L858R/T790M/C797S (BaF3-LTC (L858R/T790M/C797S), 16 h treatment, HTRF) was determined as 7.54 nM; in the test on EGFR Del19/C797S it was 6.01 nM; on EGFR L858R/C797S (BaF3 LC (L858R/C797S)), 20.7 nM. In addition, the Dmax at EGFR L858R/T790M/C797S (setting [1]) was found to be 86.9%; at EGFR L858R/C797S (setting [2]), 76.6%. Also, the “H1975 #23 DC Dmax (%)” value in the test on EGFR Del19/C797S was 91.45%.
As to `CCOc1cc(N2CCC(N3CCN(CC4CN(c5cccc6c5oc(=O)n6C5CCC(=O)NC5=O)C4)CC3)CC2)c(CC)cc1Nc1ncc(Br)c(Nc2ccc3nc(CC)ncc3c2P(C)(C)=O)n1` (stereo not drawn) [Example 566, 3-(7-(3-((4-(1-(4-((5-bromo-4-((5-(dimethylphosphoryl)-2-ethylquinazolin-6-yl)amino)pyrimidin-2-yl)amino)-5-ethoxy-2-ethylphenyl)piperidin-4-yl)piperazin-1-yl)methyl)azetidin-1-yl)-2-oxobenzol[d]oxazol-3(2H)-yl)piperidine-2,6-dione], the “H1975 # 28 DTC Dmax (%)” value in the test with EGFR Del19/T790M/C797S came out at 84.02%. Also, the Dmax on EGFR L858R/T790M/C797S stood at 93.9%.
For `CCOc1cc(N2CCC(N3CCN(CCc4cccc5c4oc(=O)n5C4CCC(=O)NC4=O)CC3)CC2)c(CC)cc1Nc1ncc(Br)c(Nc2ccc3nc(CC)ncc3c2P(C)(C)=O)n1` (stereo not drawn) [Example 563, 3-(7-(2-(4-(1-(4-((5-bromo-4-((5-(dimethylphosphoryl)-2-ethylquinazolin-6-yl)amino)pyrimidin-2-yl)amino)-5-ethoxy-2-ethylphenyl)piperidin-4-yl)piperazin-1-yl)ethyl)-2-oxobenzo[d]oxazol-3(2H)-yl)piperidine-2,6-dione], in that order: 81.88% and 92.6%.
In the case of `CCOc1cc(N2CCC(N3CCN(CCc4cccc5c4n(CC)c(=O)n5C4CCC(=O)NC4=O)CC3)CC2)c(CC)cc1Nc1ncc(Br)c(Nc2cc(F)c3nc(CC)ccc3c2P(C)(C)=O)n1` (stereo not drawn) [Example 643, 3-(4-(2-(4-(1-(4-((5-bromo-4-((5-(dimethylphosphoryl)-2-ethyl-8-fluoroquinolin-6-yl)amino)pyrimidin-2-yl)amino)-5-ethoxy-2-ethylphenyl)piperidin-4-yl)piperazin-1-yl)ethyl)-3-ethyl-2-oxo-2,3-dihydro-1H-benzo[d]imidazol-1-yl)piperidine-2,6-dione], the Dmax at EGFR L858R/T790M/C797S (setting [1]) was found to be 91.2%; at EGFR L858R/C797S (setting [2]), 94.1%.
For `CCc1ncc2c(P(C)(C)=O)c(Nc3nc(Nc4cc(CC)c(N5CCC(N6CCN(CCc7cc(F)c([C@H]8CCC(=O)NC8=O)c(F)c7)CC6)CC5)cc4OC)ncc3Br)ccc2n1` [Example 589, (R)-3-(4-(2-(4-(1-(4-((5-bromo-4-((5-(dimethylphosphoryl)-2-ethylquinazolin-6-yl)amino)pyrimidin-2-yl)amino)-2-ethyl-5-methoxyphenyl)piperidin-4-yl)piperazin-1-yl)ethyl)-2,6-difluorophenyl)piperidine-2,6-dione], in that order: 85.9% and 92.4%.
As for `CCc1ccc2c(P(C)(C)=O)c(Nc3nc(Nc4cc(CC)c(N5CCC(N6CCN(CCc7cc(F)c(C8CCC(=O)NC8=O)c(F)c7)CC6)CC5)cc4OC)ncc3Br)ccc2n1` (stereo not drawn) [Example 485, 3-(4-(2-(4-(1-(4-((5-bromo-4-((5-(dimethylphosphoryl)-2-ethylquinolin-6-yl)amino)pyrimidin-2-yl)amino)-2-ethyl-5-methoxyphenyl)piperidin-4-yl)piperazin-1-yl)ethyl)-2,6-difluorophenyl)piperidine-2,6-dione], the Dmax on EGFR L858R/T790M/C797S (setting [1]) is 88.5%; on EGFR L858R/C797S (setting [2]), 88.3%.

Usually Dmax stands for the greatest extent of degradation seen. The DC50 is the concentration at which degradation of the target reaches its halfway point. A higher DC50 goes with a less potent degrader.

These data come from patent US20230248834A1, “DEGRADATION OF (EGFR) BY CONJUGATION OF EGFR INHIBITORS WITH E3 LIGASE LIGAND AND METHODS OF USE” (BEIGENE, LTD., priority 2020, published 2023).
